Experimental findings from US6479531B1, “Gastrin and cholecystokinin receptor ligands” (James Black Foundation Limited, priority 1998, dated 2002) are described below.

Where a name gives a salt, the structure may show the parent alone.

The target of experiment [1] is T1, gastrin receptor (Rattus norvegicus, UniProt P30553).
T1 construct: The stomach was excised and flushed with ca. 1 ml of unbuffered physiological saline solution; from tissue; host or cells: isolated whole stomach of immature rats (ca. 21 days old)
T1 sequence (P30553 1-452): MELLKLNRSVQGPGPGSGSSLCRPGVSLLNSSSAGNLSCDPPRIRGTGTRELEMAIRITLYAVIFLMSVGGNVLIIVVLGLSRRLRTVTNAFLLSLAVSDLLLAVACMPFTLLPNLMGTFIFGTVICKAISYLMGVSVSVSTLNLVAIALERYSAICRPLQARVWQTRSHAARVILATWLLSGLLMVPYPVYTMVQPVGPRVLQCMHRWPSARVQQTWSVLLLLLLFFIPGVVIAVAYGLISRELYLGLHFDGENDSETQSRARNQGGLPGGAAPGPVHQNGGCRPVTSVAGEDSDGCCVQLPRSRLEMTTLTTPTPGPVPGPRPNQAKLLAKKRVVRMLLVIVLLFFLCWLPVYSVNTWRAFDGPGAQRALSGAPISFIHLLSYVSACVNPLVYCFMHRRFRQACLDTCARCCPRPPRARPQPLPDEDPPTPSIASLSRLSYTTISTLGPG
Description: gastrin antagonist activity in immature rat stomach assay (pentagastrin dose-response, acid secretion). To be noted: isolated immature rat stomach, cumulative pentagastrin dose-response curves, read-out: Gastrin pKb (converted). A digest of the protocol:
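Gastrin antagonism was measured as the effect on cumulative pentagastrin dose-response curves of acid output, recorded by pH electrode in the perfusate of an excised immature rat stomach (ca. 21 days old). Test compound was placed in the serosal bath (37°, 3×10^−8 M 5-methylfurmethide) 60 min before pentagastrin.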

Experiment [2] concerns the target T2, CCKB receptor (Mus musculus, UniProt P56481).
T2 construct: The whole brains from male mice (CD1 22-25 g; Charles River) were removed; from tissue; host or cells: cerebral cortex membranes of male CD1 mice
T2 sequence (P56481 1-453): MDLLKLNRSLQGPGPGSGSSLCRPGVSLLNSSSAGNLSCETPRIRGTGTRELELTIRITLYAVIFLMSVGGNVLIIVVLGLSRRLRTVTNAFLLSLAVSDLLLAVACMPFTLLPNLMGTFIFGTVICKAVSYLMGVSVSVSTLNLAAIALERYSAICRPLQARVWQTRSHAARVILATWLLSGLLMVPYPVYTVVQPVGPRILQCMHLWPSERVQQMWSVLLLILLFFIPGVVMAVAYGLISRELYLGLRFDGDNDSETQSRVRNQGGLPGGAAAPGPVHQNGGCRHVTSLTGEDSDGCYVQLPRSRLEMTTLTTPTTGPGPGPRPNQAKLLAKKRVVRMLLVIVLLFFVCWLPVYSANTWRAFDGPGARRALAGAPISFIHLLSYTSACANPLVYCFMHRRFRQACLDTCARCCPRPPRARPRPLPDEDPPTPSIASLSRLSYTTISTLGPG
The experiment in a line: CCKB receptor radioligand binding assay in mouse cortical membranes. To be noted: [125I]-CCK8(S) 200 pM, 150 min at 21±3°, read-out: CCKB pKi (converted). A digest of the protocol:
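Bound radioactivity was gamma-counted after rapid GF/B filtration and cold 50 mM Tris-HCl (pH 7.4) washes. The tissue was cerebral cortex from male CD1 mice, prepared as twice-centrifuged membranes in pH 7.2 HEPES/NaCl/KCl/MgCl2/EDTA buffer with bacitracin at 20 mg/ml original wet weight.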

As to `Cc1ccc(NC(=O)c2nc(-c3ccccn3)[nH]c2CCC23CC4CC(CC(C4)C2)C3)cc1C(=O)O` [Example 179, 5-{[5-(2-Adamantan-1-yl-ethyl)-2-pyridine-2-yl-1H-imidazole-4-carbonyl]-amino}-2methyl-benzoic Acid], the Kb in experiment [1] was 46.8 nM. For the same compound, the Ki in experiment [2] was 40.7 nM.
In the case of `O=C(O)c1cccc(NC(=O)c2nc(-c3ccco3)[nH]c2CCC23CC4CC(CC(C4)C2)C3)c1` [Example 185, 3-{[5-(2-Adamantan-1-yl-ethyl)-2-furan-2-yl-1H-imidazole-4-carbonyl]-amino}benzoic Acid], the Kb in experiment [1] was 155 nM. Further, in experiment [2], the Ki is 457 nM.
For the compound `O=C(O)c1cccc(NC(=O)c2nc(C3CCCO3)[nH]c2CCC23CC4CC(CC(C4)C2)C3)c1` (centres unmarked) [Example 186, 3-{[5-(2-Adamantan-1-yl-ethyl)-2-(tetrahydro-furan-2-yl)-1H-imidazole-4-carbonyl]-amino}-benzoic Acid], the Kb in experiment [1] was 11 nM. Moreover, the Ki in experiment [2] was 155 nM.
Taken in the same sequence, the figures for `Cc1ccc(NC(=O)c2nc(-c3ccco3)[nH]c2CCC23CC4CC(CC(C4)C2)C3)cc1C(=O)O` [Example 187, 5-{[5-(2-Adamantan-1-yl-ethyl)-2-furan-2-yl-1H-imidazole-4-carbonyl]-amino}-2-methyl-benzoic Acid] were 75.9 nM and 60.3 nM.
For the compound `Cc1ccc(NC(=O)c2nc(C3CCCO3)[nH]c2CCC23CC4CC(CC(C4)C2)C3)cc1C(=O)O` (centres unmarked) [Example 188, 5-{[5-(2-Adamantan-1-yl-ethyl)-2-(tetrahydro-furan-2-yl)-1H-imidazole-4-carbonyl]-amino}-2-methyl-benzoic Acid], the Kb in experiment [1] was 7.76 nM. Also, the Ki in experiment [2] is 25.7 nM.
The matching figures for `CC1(C)C2CCC(c3nc(C(=O)Nc4cccc(C(=O)O)c4)c(CCC45CC6CC(CC(C6)C4)C5)[nH]3)C1C2` (centres unmarked) [Example 190, 3-{[5-(2-Adamantan-1-yl-ethyl)-2-(6,6-dimethyl-bicyclo[3.1.1]hept-2-yl)-1H-imidazole-4-carbonyl]-amino}-benzoic Acid]: 4.17 nM and 174 nM.
The matching figures for `Cc1ccc(NC(=O)c2nc(C3CCC4CC3C4(C)C)[nH]c2CCC23CC4CC(CC(C4)C2)C3)cc1C(=O)O` (centres unmarked) [Example 191, 5-{[5-(2-Adamantan-1-yl-ethyl)-2-(6,6-dimethyl-bicyclo[3.1.1]hept-2-yl)-1H-imidazole-4-carbonyl]-amino}-2-methyl-benzoic Acid]: 67.6 nM and 28.8 nM.
In the case of `CC1(C)C2CC=C(c3nc(C(=O)Nc4cccc(C(=O)O)c4)c(CCC45CC6CC(CC(C6)C4)C5)[nH]3)C1C2` (centres unmarked) [Example 192, 3-{[5-(2-Adamantan-1-yl-ethyl)-2-(6,6-dimethyl-bicyclo[3.1.1]hept-2-en-2-yl)-1H-imidazole-4-carbonyl]-amino}-benzoic Acid], the Kb in experiment [1] was 141 nM. Besides, the Ki in experiment [2] was 66.1 nM.
Taken in the same sequence, the figures for `O=C(O)c1cccc(NC(=O)c2nc(CC3CCCCC3)[nH]c2CCC23CC4CC(CC(C4)C2)C3)c1` [Example 193, 3-{[5-(2-Adamantan-1-yl-ethyl)-2-cyclohexylmethyl-1H-imidazole-4-carbonyl]-amino}-benzoic Acid] were 20.4 nM and 57.5 nM.
Taken in the same sequence, the figures for `CC(C)C1CCC(c2nc(C(=O)Nc3cccc(C(=O)O)c3)c(CCC34CC5CC(CC(C5)C3)C4)[nH]2)CC1` (centres unmarked) [Example 194, 3-{[5-(2-Adamantan-1-yl-ethyl)-2-(4-isopropyl-cyclohexyl)-1H-imidazole-4-carbonyl]-amino}-benzoic Acid] were 525 nM and 158 nM.
The matching figures for `O=C(O)c1cccc(NC(=O)c2nc(C3CC=CCC3)[nH]c2CCC23CC4CC(CC(C4)C2)C3)c1` (centres unmarked) [Example 195, 3-{[5-(2-Adamantan-1-yl-ethyl)-2-cyclohex-3-enyl-1H-imidazole-4-carbonyl]-amino}-benzoic Acid]: 6.61 nM and 42.7 nM.
Take `O=C(O)c1cccc(NC(=O)c2[nH]c(C3CCCC3)nc2CCC23CC4CC(CC(C4)C2)C3)c1` [Example 196, 3-{[5-(2-Adamantan-1-ethyl)-2-cyclopentyl-1H-imidazole-4-carbonyl]-amino}-benzoic Acid]: the Kb in experiment [1] is 7.08 nM. Further, the Ki in experiment [2] was 38 nM.
The matching figures for `O=C(O)c1cccc(NC(=O)c2[nH]c(C3CC3)nc2CCC23CC4CC(CC(C4)C2)C3)c1` [Example 197, 3-{[5-(2-Adamantan-1-yl-ethyl)-2-cyclopropyl-1H-imidazole-4-carbonyl]-amino}-benzoic Acid]: 70.8 nM and 776 nM.
For `Cc1ccc(NC(=O)c2nc(C(C)(C)C)[nH]c2CCC23CC4CC(CC(C4)C2)C3)cc1C(=O)O` [Example 198, 5-{[5-(2-Adamantan-1-yl-ethyl)-2-tert-butyl-1H-imidazole-4-carbonyl]-amino}-2-methyl-benzoic Acid], the Kb in experiment [1] was 8.13 nM. The Ki in experiment [2] is 8.71 nM.
Taken in the same sequence, the figures for `CC1(c2nc(C(=O)Nc3cccc(C(=O)O)c3)c(CCC34CC5CC(CC(C5)C3)C4)[nH]2)CCCCC1` [Example 199, 3-{[5-(2-Adamantan-1-yl-ethyl)-2-(1-methyl-cyclohexyl)-1H-imidazole-4-carbonyl]-amino}-benzoic Acid] were 1.62 nM and 17.8 nM.
Taken in the same sequence, the figures for `CC1(c2nc(C(=O)Nc3ccc(F)c(C(=O)O)c3)c(CCC34CC5CC(CC(C5)C3)C4)[nH]2)CCCCC1` [Example 201, 5-{[5-(2-Adamantan-1-yl-ethyl)-2-(1-methyl-cyclohexyl)-1H-imidazole-4-carbonyl]-amino]-2-fluoro-benzoic Acid] were 4.9 nM and 8.71 nM.
For `CC1=C(Cc2nc(C(=O)Nc3cccc(C(=O)O)c3)c(CCC34CC5CC(CC(C5)C3)C4)[nH]2)C(C)(C)CCC1` [Example 202, 3-{[5-(2-Adamantan-1-yl-ethyl)-2-(2,6,6-trimethyl-cyclohex-1-enylmethyl)-1H-imidazole-4-carbonyl]-amino)-benzoic Acid], in experiment [1], the Kb is 28.8 nM. The Ki in experiment [2] was 112 nM.
The matching figures for `Cc1ccc(NC(=O)c2nc(C3CCCCC3)[nH]c2COC23CC4CC(CC(C4)C2)C3)cc1C(=O)O` [Example 217, 5-{[5-(Adamantan-1-yloxymethyl)-2-cyclohexyl-1H-imidazole-4-carbonyl]-amino}-2-methyl-benzoic Acid]: 3.98 nM and 3.98 nM.
For the compound `Cc1ccc(NC(=O)c2nc(C3(C)CCCCC3)[nH]c2COC23CC4CC(CC(C4)C2)C3)cc1C(=O)O` [Example 220, 5-([5-(Adamantan-1-yloxymethyl)-2-(1-methyl-cyclohexyl)-1H-imidazole-4-carbonyl]-amino}-2-methyl-benzoic Acid], the Kb in experiment [1] is 0.468 nM. Besides, the Ki in experiment [2] is 2.95 nM.
The matching figures for `Cc1ccccc1-c1nc(C(=O)Nc2ccc(N)c(C(=O)O)c2)c(CCC23CC4CC(CC(C4)C2)C3)[nH]1` [Example 241, 5-{[5-(2-Adamantan-1-yl-ethyl)-2-o-tolyl-1H-imidazole-4-carbonyl]-amino}-2-amino-benzoic Acid Dihydrochloride]: 4680 nM and 60.3 nM.
Take `Cc1ccccc1-c1nc(CCC23CC4CC(CC(C4)C2)C3)c(C(=O)Nc2ccc(N(C)C)c(C(=O)O)c2)[nH]1` [Example 242, 5-{[5-(2-Adamantan-1-yl-ethyl)-2-o-tolyl-1H-imidazole-4-carbonyl]-amino}-2-dimethylamino-benzoic Acid]: the Kb in experiment [1] was 741 nM. The Ki in experiment [2] is 324 nM.
The matching figures for `Cc1ccccc1-c1nc(C(=O)Nc2ccc(Cl)c(C(=O)O)c2)c(CCC23CC4CC(CC(C4)C2)C3)[nH]1` [Example 245, 5-{[5-(2-Adamantan-1-yl-ethyl)-2-o-tolyl-1H-imidazole-4-carbonyl]-amino}-2-chloro-benzoic Acid]: 240 nM and 6.46 nM.
